Assay [1] relates to AMPA receptor-mediated fEPSP. Description: Extracellular recording of AMPA receptor-mediated fEPSP in CA1 of hippocampal slices. It counts as cell-based, rat. As for the experimental part:
(§1) Male Wistar and Sprague-Dawley rats (Crl:Wi; Charles River, UK) aged 3–10 weeks old were killed by dislocation of cervical vertebrae according to Schedule 1 of the United Kingdom (Scientific Procedures) Act of 1986. Brains were rapidly removed and put in artificial cerebrospinal fluid (aCSF) consisting of 124 mM NaCl, 26 mM NaHCO3, 3 mM KCl, 1.4 mM NaH2PO4, 1 mM MgSO4, 2 mM CaCl2, and 10 mM D-glucose and continuously oxygenated with 95% O2 and 5% CO2. Parasagittal brain slices, 400 μm thick, of the hippocampus were removed, stored and placed in a submerged recording chamber at 28–30 °C.
Recordings of extracellular synaptic activity were made ([Ceolin et al., 2012], [Volianskis et al., 2013]) using a bipolar electrode to deliver stimuli (0.03 Hz) to the Schaffer collateral pathway to evoke field excitatory postsynaptic potentials (fEPSPs) recorded from a glass microelectrode (3–6 MΩ) in the stratum radiatum of area CA1. […] In initial experiments after 30 min of stable control responses, the remaining response was challenged with 30 μM ephenidine. Using this protocol for isolating NMDA-fEPSPs (see Fig. 2A), 1 and 10 μM ephenidine or 1 and 10 μM D-2-amino-5-phosphonopentanoic acid (D-AP5) were added to the perfusate for up to 4 h while recording the amplitude and area of the NMDA-fEPSP on-line using WinLTP ([Anderson and Collingridge, 2007]). […]

The test system of assay [2] is NMDA receptor-mediated EPSCs. The experiment in a line: Whole-cell patch clamp of NMDA receptor-mediated EPSCs in CA1 pyramidal cells. The class given is cell-based, rat. As for the experimental part: as §1
Whole-cell patch clamp recordings of excitatory postsynaptic currents (EPSCs) were made from CA1 pyramidal cells under visual guidance with IR-DIC optics as described by [Park et al. (2016)]. The recording chamber was maintained at 32 °C. Borosilicate glass pipettes were used with a resistance of 3–5 MΩ. The internal solution comprised (mM): 8 NaCl, 130 CsMeSO3, 10 HEPES, 0.5 EGTA, 4 Mg-ATP, 0.3 Na3-GTP, 5 QX-314 and 0.1 spermine. The pH was adjusted to 7.2–7.3 with CsOH and osmolarity to 285–290 mOsm. Peak amplitude of EPSCs was measured while varying holding voltage from −60 mV to +60 mV and stimulating the Schaffer collateral pathway at a frequency of 0.1 Hz at constant intensity. Five consecutive responses obtained at each holding potential were averaged to plot the current-voltage relationship. Currents through NMDA receptors were pharmacologically isolated using 10 μM NBQX, 50 μM picrotoxin and 20 μM (+)-bicuculline. In initial experiments, MgSO4 was omitted from the bath solution for at least 30 min before patching and replaced with 30 μM ephenidine, 10 μM ketamine, 30 μM D-AP5 or 2 mM MgSO4. Rectification indices were calculated from the EPSC values at +40 mV and −40 mV. In subsequent experiments, slices were incubated in aCSF with no added MgSO4, before transferring to the recording chamber to obtain control current-voltage plots from NMDA-EPSCs as above before adding 2 mM MgSO4 or 30 μM ephenidine for 30 min and repeating the current-voltage protocol. Representative sample traces are shown from typical experiments, and stimulus artifacts blanked for clarity. Data were normalized to the baseline preceding drug application, and are presented as mean ± SEM and compared using one-way ANOVA and level of significance is denoted as *** for p values < 0.001.
In general terms: Patch clamp records ionic current or voltage across a cell membrane.

Assay [3] addresses MK-801 binding site of the NMDA receptor. Details: method as in Wallach et al., 2016. Particulars: same assay, ref Wallach et al., 2016, cited from earlier work; for Ki: read-out: Ki, (+)-[3H]-MK-801 displacement.
Assay [4] relates to NMDA receptor-mediated fEPSP. The experiment in a line: Extracellular recording of NMDA receptor-mediated fEPSP in CA1 of hippocampal slices. It counts as cell-based, rat. As to conditions: for time-course of reduction of NMDA receptor mediated fEPSP: 1 and 10 μM; for inhibition of NMDA receptor mediated fEPSP: after 4 h superfusion. As for the experimental part: as §1
Recordings of extracellular synaptic activity were made ([Ceolin et al., 2012], [Volianskis et al., 2013]) using a bipolar electrode to deliver stimuli (0.03 Hz) to the Schaffer collateral pathway to evoke field excitatory postsynaptic potentials (fEPSPs) recorded from a glass microelectrode (3–6 MΩ) in the stratum radiatum of area CA1. […] In initial experiments after 30 min of stable control responses, the remaining response was challenged with 30 μM ephenidine. Using this protocol for isolating NMDA-fEPSPs (see Fig. 2A), 1 and 10 μM ephenidine or 1 and 10 μM D-2-amino-5-phosphonopentanoic acid (D-AP5) were added to the perfusate for up to 4 h while recording the amplitude and area of the NMDA-fEPSP on-line using WinLTP ([Anderson and Collingridge, 2007]). Single exponential curves were fitted to show likely half-times and minimum plateau responses achieved with each concentration used. For selectivity experiments, 50 μM picrotoxin and 1 μM CGP 55845 were added to the solution from the beginning of the experiment and 50 μM ephenidine was superfused for 60 min in the absence of other pharmacological agent.

In the next assay the target is sigma 1 binding site (Homo sapiens, UniProt Q99720). Description: NIMH PDSP receptor binding assay, sigma 1. As to conditions: affinity for sigma 1 binding site, NIMH PDSP secondary assay. As for the experimental part:
(§2) Displacement by ephenidine in binding assays of a further 45 CNS receptors was performed through the National Institute of Mental Health Psychoactive Drug Screening Program (NIMH PDSP). Briefly ephenidine, dissolved in DMSO, was subject to a primary screen at a concentration of 10 μM (see Suppl. 2 for radioligands used). […] Additional experimental details are available in the NIMH PDSP protocol book ([Roth et al., 2013]).

The target in assay [5] is dopamine transporter (DAT) (Homo sapiens, UniProt Q01959). The experiment in a line: NIMH PDSP receptor binding assay, dopamine transporter. As for the experimental part:
as §2

The subject of assay [6] is long-term potentiation (LTP) in CA1. Description: LTP of fEPSPs in Schaffer collateral-CA1 pathway induced by theta burst stimulation. The class given is cell-based, rat. As for the experimental part:
as §1
To study the effect of ephenidine on long-term potentiation (LTP), slices were incubated in control aCSF or aCSF containing 10 μM ephenidine for at least 2 h before transferring to the recording chamber, fEPSPs were recorded as above without addition of other agents. After obtaining stable responses, a theta burst stimulation (TBS; [Park et al., 2016]) was applied to the Schaffer collateral pathway and the amplitude of the fEPSP in CA1 monitored for at least a further 40 min.

The subject of another assay is PCP binding site. Details: method as in Thurkauf et al., 1989. As to conditions: ref Thurkauf et al., 1989; cited from earlier work.
Assay [7] addresses noradrenaline transporter (NET) (Homo sapiens, UniProt P23975). The experiment in a line: NIMH PDSP receptor binding assay, noradrenaline transporter. As for the experimental part: as §2
The test system of assay [8] is remaining 41 CNS receptors (Supplement 2). The experiment in a line: NIMH PDSP primary binding screen at 10 μM, remaining 41 receptors. As for the experimental part: as §2
The target of assay [9] is MK-801 binding site of the NMDA receptor. The experiment in a line: (+)-[3H]-MK-801 displacement binding in whole rat brain homogenate. As for the experimental part:
Termination of reaction was performed via vacuum filtration using a 24 well cell harvester (Brandel, Gaithersburg, MD) over presoaked GF/B glass fiber filters (Brandel, Gaithersburg, MD). Filters were washed with room temperature assay buffer (3 × 5 mL). Trapped tritium was measured via liquid scintillation counting, using a Beckman LS 6500 multipurpose scintillation counter (BeckmanCoulter, USA) at 57% efficiency. IC50 values were determined in Graphpad Prism 5.0 using non-linear regression with log-concentration plotted against percent specific binding. […] Ki values were calculated using the equation of [Cheng and Prusoff (1973)]. […] Protein concentration was determined via the Bradford method using Coomassie protein assay reagent (Sigma, USA) with rat albumin (Sigma, USA) as standard. Experiments were performed in duplicate and repeated three or four times.

Another assay addresses sigma 2 binding site (Homo sapiens, UniProt Q5BJF2). The experiment in a line: NIMH PDSP receptor binding assay, sigma 2. As for the experimental part:
as §2

Where “and” joins values, the source holds several entries; their conditions need not be identical. Equal values may be shown once. Entries after “also recorded” stand apart in the source; their conditions may differ. Read-outs that look alike come from different tables or passages of the source.

Broadly, the Ki is a measure of affinity in units of concentration, obtained from inhibition or displacement. In general, IC50 refers to the concentration that inhibits the measured activity by half.

Sequence of sigma 1 binding site (Q99720 whole entry): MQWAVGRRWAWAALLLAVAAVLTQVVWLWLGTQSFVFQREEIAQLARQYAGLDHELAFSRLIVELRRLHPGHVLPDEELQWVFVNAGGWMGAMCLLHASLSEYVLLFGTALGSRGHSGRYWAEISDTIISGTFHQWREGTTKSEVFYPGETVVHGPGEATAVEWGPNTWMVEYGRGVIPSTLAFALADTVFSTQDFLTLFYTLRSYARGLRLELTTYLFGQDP
Sequence of dopamine transporter (DAT) (Q01959 whole entry, species assumed): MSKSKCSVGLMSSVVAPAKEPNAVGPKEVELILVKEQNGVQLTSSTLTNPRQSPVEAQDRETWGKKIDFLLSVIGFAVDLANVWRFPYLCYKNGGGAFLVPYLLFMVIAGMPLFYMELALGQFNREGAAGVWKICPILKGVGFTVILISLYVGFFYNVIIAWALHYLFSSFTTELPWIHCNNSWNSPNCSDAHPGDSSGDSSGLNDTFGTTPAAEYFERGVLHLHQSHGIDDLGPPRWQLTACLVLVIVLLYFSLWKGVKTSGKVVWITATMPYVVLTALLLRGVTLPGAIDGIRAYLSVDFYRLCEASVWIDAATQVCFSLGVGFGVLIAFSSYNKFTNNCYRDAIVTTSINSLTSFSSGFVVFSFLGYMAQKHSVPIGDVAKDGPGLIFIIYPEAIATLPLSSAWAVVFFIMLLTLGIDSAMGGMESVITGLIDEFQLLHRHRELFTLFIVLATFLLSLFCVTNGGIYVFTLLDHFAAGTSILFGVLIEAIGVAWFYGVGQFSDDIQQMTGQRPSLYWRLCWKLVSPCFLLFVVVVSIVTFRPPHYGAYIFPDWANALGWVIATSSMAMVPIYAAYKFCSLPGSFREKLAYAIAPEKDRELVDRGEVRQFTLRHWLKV
Sequence of sigma 2 binding site (Q5BJF2 whole entry): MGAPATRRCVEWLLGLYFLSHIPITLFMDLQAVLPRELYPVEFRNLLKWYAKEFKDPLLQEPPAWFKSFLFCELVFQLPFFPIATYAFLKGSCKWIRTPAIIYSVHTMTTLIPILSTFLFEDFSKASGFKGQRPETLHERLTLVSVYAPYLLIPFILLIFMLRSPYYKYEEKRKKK
Sequence of noradrenaline transporter (NET) (P23975 whole entry): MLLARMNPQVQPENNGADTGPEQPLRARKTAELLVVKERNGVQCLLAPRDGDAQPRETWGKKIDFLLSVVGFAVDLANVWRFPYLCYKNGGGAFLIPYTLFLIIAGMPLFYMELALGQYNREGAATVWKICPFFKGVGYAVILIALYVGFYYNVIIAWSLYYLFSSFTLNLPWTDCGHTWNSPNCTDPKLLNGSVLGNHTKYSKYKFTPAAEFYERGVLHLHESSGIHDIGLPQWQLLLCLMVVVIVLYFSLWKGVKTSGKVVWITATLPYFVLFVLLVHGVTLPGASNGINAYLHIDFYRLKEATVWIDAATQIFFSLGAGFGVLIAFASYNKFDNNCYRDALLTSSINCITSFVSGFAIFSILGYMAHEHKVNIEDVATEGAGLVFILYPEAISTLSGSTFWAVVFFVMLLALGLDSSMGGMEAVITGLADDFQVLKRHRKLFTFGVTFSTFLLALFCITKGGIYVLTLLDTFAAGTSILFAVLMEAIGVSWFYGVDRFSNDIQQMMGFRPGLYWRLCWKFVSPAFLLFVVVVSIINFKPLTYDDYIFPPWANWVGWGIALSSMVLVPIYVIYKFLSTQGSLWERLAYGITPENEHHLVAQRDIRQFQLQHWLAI

On to `NS(=O)(=O)c1cccc2c1c([N+](=O)[O-])cc1nc(O)c(O)nc12` [NBQX, reference compound], for which the “effect on AMPA receptor mediated fEPSP” value in [1] (3 μM) is on record as “rapid block of the remaining fEPSP”.
Regarding `CNC1(c2ccccc2Cl)CCCCC1=O` (stereo not shown) [ketamine], the “rectification index (RI; +40 mV/−40 mV)” value in assay [2] (10 μM, no added Mg2+) was 2.0 ± 0.2. Further, the figures for the Ki in [3] (listed as Ketamine) and in assay [3] were 324 ± 19.2 nM and 324 ± 19 nM, respectively. Moreover, the concentration for half-maximal inhibition (IC50) in [3] (read-out: IC50, (+)-[3H]-MK-801 displacement) is 508 ± 30.1 nM. Besides, the “time-course of reduction of NMDA receptor mediated fEPSP” value in assay [4] was “slower reduction”.
Regarding `CCNC(Cc1ccccc1)c1ccccc1` (stereo not shown) [ephenidine, N-Ethyl-1,2-diphenylethanamine], the Ki was 629 nM and 628 nM on sigma 1 binding site; 379 nM in [5]; 841 nM in assay [7]; 66 nM and 66.4 nM in [9] (1 nM (+)-[3H]-MK-801, Cheng-Prusoff); 721 nM on sigma 2 binding site. Further, the “effect on induction of LTP” value in assay [6] (10 μM) is listed as “blocked the induction of long term potentiation (LTP); also recorded: completely blocked the induction of LTP”; in assay [6] (30 μM), “completely blocked the induction of LTP”. In addition, the “block of NMDA receptor-mediated EPSCs” value in assay [2] (10 μM) is “blocked NMDA receptor-mediated EPSCs in a highly voltage-dependent manner”. Further, the “rectification index (RI; +40 mV/−40 mV)” value in [2] (30 μM ephenidine, no added Mg2+) came out at 3.6 ± 0.3. In addition, the “effect on NMDA-EPSC current-voltage relationship” value in [2] (30 μM, no added Mg2+) is listed as “reduction of inward current at negative holding potentials”. In assay [2] (30 μM, no added Mg2+, holding potential +40 mV), the “mean NMDA-EPSC current at +40 mV” value worked out at 133 ± 12 pA. The “mean NMDA-EPSC current at −40 mV” value in assay [2] (30 μM, no added Mg2+, holding potential −40 mV) is given as −48 ± 8 pA. The “affinity for the PCP binding site” value in the assay with PCP binding site is listed as 257 nM. Further, the “displacement in primary screen” value in assay [8] was “less than 50%”. Besides, the IC50 in assay [9] (1 nM (+)-[3H]-MK-801) turned out to be 104 ± 5.9 nM. Besides, the “effect on AMPA receptor mediated fEPSP (peak amplitude)” value in [1] (50 μM, 1 h superfusion) was “lack of effect; also recorded: did not affect; also recorded: no significant reduction”. Also, the “inhibition of NMDA receptor mediated fEPSP” value in assay [4] (1 μM) is recorded as 25%; in [4] (10 μM), “near maximal inhibition; also recorded: near maximal effect”. Moreover, the “effect on NMDA receptor mediated fEPSP” value in assay [4] (30 μM) was “slowly reduced”.
Turning to `N[C@H](CCCP(=O)(O)O)C(=O)O` [D-AP5, D-2-amino-5-phosphonopentanoic acid, reference compound], the “rectification index (RI; +40 mV/−40 mV)” value in assay [2] (30 μM D-AP5, no added Mg2+) is listed as 0.8 ± 0.01. In [2] (30 μM, no added Mg2+), the “effect on NMDA-EPSC current-voltage relationship” value is “reduced both inward and outward current”. The “time-course of reduction of NMDA receptor mediated fEPSP” value in assay [4] is given as “rapid reduction”.

(Values after paper PMC5084681, “Ephenidine: A new psychoactive agent with ketamine-like NMDA receptor antagonist properties” (Neuropharmacology, 2017).)
